{"source": "paper PMC4844702", "about": "“Selective inhibition of the kinase DYRK1A by targeting its folding process” (Nature Communications, 2016)", "test_in_all_cases": "Kinase panel (Carna)", "assay_type_in_all_cases": "biochemical", "key": {"FGFR1": {"target": "T1, FGFR1 (Homo sapiens, UniProt P11362)", "T1 construct": "purchased Carna Biosciences", "T1 sequence (P11362 22-822)": "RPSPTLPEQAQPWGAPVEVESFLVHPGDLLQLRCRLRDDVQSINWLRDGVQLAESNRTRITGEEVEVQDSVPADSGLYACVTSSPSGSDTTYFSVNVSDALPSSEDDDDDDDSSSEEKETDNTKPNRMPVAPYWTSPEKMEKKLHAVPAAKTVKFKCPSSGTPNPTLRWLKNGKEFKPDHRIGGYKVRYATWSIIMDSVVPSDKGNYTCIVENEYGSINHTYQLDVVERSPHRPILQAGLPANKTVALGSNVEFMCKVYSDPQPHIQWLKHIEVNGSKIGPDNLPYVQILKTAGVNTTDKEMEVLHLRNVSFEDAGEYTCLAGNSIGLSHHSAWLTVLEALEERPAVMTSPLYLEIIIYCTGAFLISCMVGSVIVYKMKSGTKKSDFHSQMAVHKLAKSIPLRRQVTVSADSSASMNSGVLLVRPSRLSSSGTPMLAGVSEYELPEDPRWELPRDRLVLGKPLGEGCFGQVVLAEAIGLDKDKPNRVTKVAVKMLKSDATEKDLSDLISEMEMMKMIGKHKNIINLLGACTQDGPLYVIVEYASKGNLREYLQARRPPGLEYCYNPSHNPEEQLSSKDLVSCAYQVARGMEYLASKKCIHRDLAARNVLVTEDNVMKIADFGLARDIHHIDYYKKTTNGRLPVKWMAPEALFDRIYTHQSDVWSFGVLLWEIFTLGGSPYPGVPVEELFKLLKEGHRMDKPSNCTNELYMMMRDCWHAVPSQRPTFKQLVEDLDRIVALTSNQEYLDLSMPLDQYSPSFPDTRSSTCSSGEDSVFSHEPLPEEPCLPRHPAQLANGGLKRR"}, "PKD3": {"target": "T2, PKD3 (Homo sapiens, UniProt O94806)", "T2 construct": "purchased Carna Biosciences", "T2 sequence (O94806 whole entry)": "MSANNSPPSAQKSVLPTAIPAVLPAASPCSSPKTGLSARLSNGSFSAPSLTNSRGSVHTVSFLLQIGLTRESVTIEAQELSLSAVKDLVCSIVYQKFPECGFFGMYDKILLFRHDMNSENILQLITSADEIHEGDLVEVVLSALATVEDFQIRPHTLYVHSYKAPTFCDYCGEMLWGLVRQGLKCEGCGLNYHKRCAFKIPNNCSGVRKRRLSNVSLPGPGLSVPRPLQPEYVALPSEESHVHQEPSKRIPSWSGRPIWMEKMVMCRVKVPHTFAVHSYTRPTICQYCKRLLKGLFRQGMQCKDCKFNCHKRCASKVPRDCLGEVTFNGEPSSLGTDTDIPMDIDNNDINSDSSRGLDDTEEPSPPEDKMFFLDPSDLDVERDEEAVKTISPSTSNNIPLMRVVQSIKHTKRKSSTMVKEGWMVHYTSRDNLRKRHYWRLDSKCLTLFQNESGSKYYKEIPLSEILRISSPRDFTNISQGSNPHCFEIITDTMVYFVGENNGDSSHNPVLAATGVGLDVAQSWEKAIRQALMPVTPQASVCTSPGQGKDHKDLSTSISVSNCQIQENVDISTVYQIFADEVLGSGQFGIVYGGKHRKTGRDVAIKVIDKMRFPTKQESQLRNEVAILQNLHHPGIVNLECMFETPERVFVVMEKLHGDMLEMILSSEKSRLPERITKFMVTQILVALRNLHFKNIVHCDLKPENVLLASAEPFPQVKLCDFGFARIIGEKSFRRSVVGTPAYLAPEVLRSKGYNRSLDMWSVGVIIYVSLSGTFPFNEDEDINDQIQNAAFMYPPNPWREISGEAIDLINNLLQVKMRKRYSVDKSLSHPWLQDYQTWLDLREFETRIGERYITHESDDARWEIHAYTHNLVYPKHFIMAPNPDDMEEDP"}, "PAK5": {"target": "T3, PAK5 (Homo sapiens, UniProt Q9P286)", "T3 construct": "purchased Carna Biosciences", "text": "(§1) Detailed information on the assay conditions is available on the website of Carna Biosciences (http://www.carnabio.com)."}, "MELK": {"target": "T4, MELK (Homo sapiens, UniProt Q14680)", "T4 construct": "purchased Carna Biosciences", "text": "as §1"}, "PKN1": {"target": "T5, PKN1 (Homo sapiens, UniProt Q16512)", "T5 construct": "purchased Carna Biosciences"}, "PKCγ": {"target": "T6, PKCγ (Homo sapiens, UniProt P05129)", "T6 construct": "purchased Carna Biosciences", "text": "as §1"}, "PLK3": {"target": "T7, PLK3 (Homo sapiens, UniProt Q9H4B4)", "T7 construct": "purchased Carna Biosciences", "conditions": "10 µM FINDY"}, "DLK_Cascade": {"target": "T8, DLK_Cascade (Homo sapiens, UniProt Q12852)", "T8 construct": "purchased Carna Biosciences", "T8 sequence (Q12852 whole entry)": "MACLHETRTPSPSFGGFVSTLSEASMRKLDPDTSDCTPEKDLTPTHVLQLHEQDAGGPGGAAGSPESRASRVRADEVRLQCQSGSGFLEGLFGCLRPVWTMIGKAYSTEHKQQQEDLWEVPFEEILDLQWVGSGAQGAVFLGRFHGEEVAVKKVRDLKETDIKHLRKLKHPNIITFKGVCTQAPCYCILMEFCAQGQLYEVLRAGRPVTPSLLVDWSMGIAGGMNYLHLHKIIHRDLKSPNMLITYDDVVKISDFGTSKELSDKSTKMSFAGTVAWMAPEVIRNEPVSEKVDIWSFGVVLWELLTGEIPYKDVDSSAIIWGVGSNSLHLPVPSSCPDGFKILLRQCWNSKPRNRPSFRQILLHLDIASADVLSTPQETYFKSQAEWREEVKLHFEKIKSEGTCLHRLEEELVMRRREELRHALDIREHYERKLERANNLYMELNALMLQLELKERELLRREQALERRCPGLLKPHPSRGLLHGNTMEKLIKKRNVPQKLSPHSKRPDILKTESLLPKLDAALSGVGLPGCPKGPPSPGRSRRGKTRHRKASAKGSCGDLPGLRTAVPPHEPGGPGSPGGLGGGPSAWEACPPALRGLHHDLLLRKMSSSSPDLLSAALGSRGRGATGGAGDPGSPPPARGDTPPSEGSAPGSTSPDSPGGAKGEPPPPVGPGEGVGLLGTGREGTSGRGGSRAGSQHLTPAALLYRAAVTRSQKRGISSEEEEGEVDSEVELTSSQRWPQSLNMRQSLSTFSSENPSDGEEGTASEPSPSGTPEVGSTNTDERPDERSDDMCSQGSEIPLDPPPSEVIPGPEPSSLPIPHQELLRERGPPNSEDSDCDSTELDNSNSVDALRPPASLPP", "text": "as §1"}, "AurC": {"target": "T9, AurC (Homo sapiens, UniProt Q9UQB9)", "T9 construct": "purchased Carna Biosciences", "text": "as §1"}, "DDR1": {"target": "T10, DDR1 (Homo sapiens, UniProt Q08345)", "T10 construct": "purchased Carna Biosciences"}, "JAK2": {"target": "T11, JAK2 (Homo sapiens, UniProt O60674)", "T11 construct": "purchased Carna Biosciences", "text": "as §1"}, "CDK2/CycA2": {"target": "T12, CDK2/CycA2 (Homo sapiens, UniProt P24941)", "T12 construct": "purchased Carna Biosciences", "text": "as §1"}, "RAF1_Cascade": {"target": "T13, RAF1_Cascade (Homo sapiens, UniProt P04049)", "T13 construct": "purchased Carna Biosciences"}, "PYK2": {"target": "T14, PYK2 (Homo sapiens, UniProt Q14289)", "T14 construct": "purchased Carna Biosciences", "text": "as §1"}, "PKCζ": {"target": "T15, PKCζ (Homo sapiens, UniProt Q05513)", "T15 construct": "purchased Carna Biosciences", "T15 sequence (Q05513 whole entry)": "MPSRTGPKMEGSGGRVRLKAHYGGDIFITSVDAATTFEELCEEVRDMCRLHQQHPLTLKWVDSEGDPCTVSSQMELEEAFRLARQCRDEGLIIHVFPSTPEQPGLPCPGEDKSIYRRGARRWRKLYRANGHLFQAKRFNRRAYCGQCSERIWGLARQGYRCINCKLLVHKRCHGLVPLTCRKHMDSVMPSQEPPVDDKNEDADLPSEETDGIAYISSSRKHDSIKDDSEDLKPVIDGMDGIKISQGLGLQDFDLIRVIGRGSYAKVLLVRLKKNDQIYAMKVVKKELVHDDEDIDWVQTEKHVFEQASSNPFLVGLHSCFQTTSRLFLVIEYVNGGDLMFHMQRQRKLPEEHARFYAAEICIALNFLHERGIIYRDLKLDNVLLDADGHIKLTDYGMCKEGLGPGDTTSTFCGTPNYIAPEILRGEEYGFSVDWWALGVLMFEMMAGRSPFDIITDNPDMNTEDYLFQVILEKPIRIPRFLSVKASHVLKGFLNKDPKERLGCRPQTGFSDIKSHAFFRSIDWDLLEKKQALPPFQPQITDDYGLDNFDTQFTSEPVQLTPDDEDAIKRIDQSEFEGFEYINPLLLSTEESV", "text": "as §1"}, "AurA/TPX2": {"target": "T16, AurA/TPX2 (Homo sapiens, UniProt O14965)", "T16 construct": "purchased Carna Biosciences", "text": "as §1"}, "PASK": {"target": "T17, PASK (Homo sapiens, UniProt Q96RG2)", "T17 construct": "purchased Carna Biosciences", "text": "as §1"}, "FLT1": {"target": "T18, FLT1 (Homo sapiens, UniProt P17948)", "T18 construct": "purchased Carna Biosciences", "text": "as §1"}, "MLK2_Cascade": {"target": "T19, MLK2_Cascade (Homo sapiens, UniProt Q02779)", "T19 construct": "purchased Carna Biosciences", "text": "as §1"}, "PLK1": {"target": "T20, PLK1 (Homo sapiens, UniProt P53350)", "T20 construct": "purchased Carna Biosciences"}, "MAP2K2_Cascade": {"target": "T21, MAP2K2_Cascade (Homo sapiens, UniProt P36507)", "T21 construct": "purchased Carna Biosciences"}, "Erk5": {"target": "T22, Erk5 (Homo sapiens, UniProt Q13164)", "T22 construct": "purchased Carna Biosciences"}, "MST1": {"target": "T23, MST1 (Homo sapiens, UniProt Q13043)", "T23 construct": "purchased Carna Biosciences", "text": "as §1"}, "EPHA2": {"target": "T24, EPHA2 (Homo sapiens, UniProt P29317)", "T24 construct": "purchased Carna Biosciences"}, "LOK": {"target": "T25, LOK (Homo sapiens, UniProt O94804)", "T25 construct": "purchased Carna Biosciences"}, "PKD2": {"target": "T26, PKD2 (Homo sapiens, UniProt Q9BZL6)", "T26 construct": "purchased Carna Biosciences", "text": "as §1"}, "TRKA": {"target": "T27, TRKA (Homo sapiens, UniProt P04629)", "T27 construct": "purchased Carna Biosciences", "text": "as §1"}, "EPHA1": {"target": "T28, EPHA1 (Homo sapiens, UniProt P21709)", "T28 construct": "purchased Carna Biosciences"}, "p38γ": {"target": "T29, p38γ (Homo sapiens, UniProt P53778)", "T29 construct": "purchased Carna Biosciences", "T29 sequence (P53778 whole entry)": "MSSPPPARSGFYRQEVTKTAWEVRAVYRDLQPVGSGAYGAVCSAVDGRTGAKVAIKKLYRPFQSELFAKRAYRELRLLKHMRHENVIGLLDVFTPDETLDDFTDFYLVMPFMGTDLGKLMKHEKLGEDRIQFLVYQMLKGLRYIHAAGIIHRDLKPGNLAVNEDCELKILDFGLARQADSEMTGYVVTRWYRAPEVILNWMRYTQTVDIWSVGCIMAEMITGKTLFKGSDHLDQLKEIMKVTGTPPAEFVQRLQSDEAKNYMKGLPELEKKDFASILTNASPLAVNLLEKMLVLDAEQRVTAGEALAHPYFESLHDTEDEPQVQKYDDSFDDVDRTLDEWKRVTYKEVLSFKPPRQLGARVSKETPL", "text": "as §1"}, "MARK1": {"target": "T30, MARK1 (Homo sapiens, UniProt Q9P0L2)", "T30 construct": "purchased Carna Biosciences", "text": "as §1"}, "ALK": {"target": "T31, ALK (Homo sapiens, UniProt Q9UM73)", "T31 construct": "purchased Carna Biosciences", "text": "as §1"}, "TAK1-TAB1_Cascade": {"target": "T32, TAK1-TAB1_Cascade (Homo sapiens, UniProt O43318)", "T32 construct": "purchased Carna Biosciences", "text": "as §1"}, "MSK2": {"target": "T33, MSK2 (Homo sapiens, UniProt O75676)", "T33 construct": "purchased Carna Biosciences", "text": "as §1"}, "PAK6": {"target": "T34, PAK6 (Homo sapiens, UniProt Q9NQU5)", "T34 construct": "purchased Carna Biosciences", "T34 sequence (Q9NQU5 whole entry)": "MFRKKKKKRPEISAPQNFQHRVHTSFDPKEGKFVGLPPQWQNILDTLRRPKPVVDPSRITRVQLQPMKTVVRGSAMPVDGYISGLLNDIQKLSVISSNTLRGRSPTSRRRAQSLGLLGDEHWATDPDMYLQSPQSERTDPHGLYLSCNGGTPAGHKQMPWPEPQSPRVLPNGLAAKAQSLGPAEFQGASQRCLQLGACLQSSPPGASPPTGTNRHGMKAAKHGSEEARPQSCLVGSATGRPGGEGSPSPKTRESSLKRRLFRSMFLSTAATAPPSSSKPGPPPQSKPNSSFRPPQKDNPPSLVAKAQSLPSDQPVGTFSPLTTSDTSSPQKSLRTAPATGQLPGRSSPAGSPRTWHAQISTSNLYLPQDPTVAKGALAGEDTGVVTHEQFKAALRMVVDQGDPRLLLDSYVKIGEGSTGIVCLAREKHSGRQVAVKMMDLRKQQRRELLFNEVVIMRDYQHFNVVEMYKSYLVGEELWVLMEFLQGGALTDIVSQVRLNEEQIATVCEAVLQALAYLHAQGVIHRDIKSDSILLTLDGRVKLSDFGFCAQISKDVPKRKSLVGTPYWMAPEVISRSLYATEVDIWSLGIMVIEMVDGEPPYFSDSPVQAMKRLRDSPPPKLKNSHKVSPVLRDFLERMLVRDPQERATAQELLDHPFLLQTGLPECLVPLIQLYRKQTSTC", "text": "as §1"}, "TSSK1": {"target": "T35, TSSK1 (Homo sapiens, UniProt Q9BXA7)", "T35 construct": "purchased Carna Biosciences", "text": "as §1"}, "PGK": {"target": "T36, PGK (Homo sapiens, UniProt Q13976)", "T36 construct": "purchased Carna Biosciences", "text": "as §1"}, "IRAK1": {"target": "T37, IRAK1 (Homo sapiens, UniProt P51617)", "T37 construct": "purchased Carna Biosciences", "text": "as §1"}, "HIPK4": {"target": "T38, HIPK4 (Homo sapiens, UniProt Q8NE63)", "T38 construct": "purchased Carna Biosciences", "text": "as §1"}, "KIT": {"target": "T39, KIT (Homo sapiens, UniProt P10721)", "T39 construct": "purchased Carna Biosciences", "text": "as §1"}, "p70S6K": {"target": "T40, p70S6K (Homo sapiens, UniProt P23443)", "T40 construct": "purchased Carna Biosciences", "text": "as §1"}, "PDHK2": {"target": "T41, PDHK2 (Homo sapiens, UniProt Q15119)", "T41 construct": "purchased Carna Biosciences", "text": "as §1"}, "TYRO3": {"target": "T42, TYRO3 (Homo sapiens, UniProt Q06418)", "T42 construct": "purchased Carna Biosciences", "text": "as §1"}, "NEK6": {"target": "T43, NEK6 (Homo sapiens, UniProt Q9HC98)", "T43 construct": "purchased Carna Biosciences"}, "MAP4K2": {"target": "T44, MAP4K2 (Homo sapiens, UniProt Q12851)", "T44 construct": "purchased Carna Biosciences", "T44 sequence (Q12851 whole entry)": "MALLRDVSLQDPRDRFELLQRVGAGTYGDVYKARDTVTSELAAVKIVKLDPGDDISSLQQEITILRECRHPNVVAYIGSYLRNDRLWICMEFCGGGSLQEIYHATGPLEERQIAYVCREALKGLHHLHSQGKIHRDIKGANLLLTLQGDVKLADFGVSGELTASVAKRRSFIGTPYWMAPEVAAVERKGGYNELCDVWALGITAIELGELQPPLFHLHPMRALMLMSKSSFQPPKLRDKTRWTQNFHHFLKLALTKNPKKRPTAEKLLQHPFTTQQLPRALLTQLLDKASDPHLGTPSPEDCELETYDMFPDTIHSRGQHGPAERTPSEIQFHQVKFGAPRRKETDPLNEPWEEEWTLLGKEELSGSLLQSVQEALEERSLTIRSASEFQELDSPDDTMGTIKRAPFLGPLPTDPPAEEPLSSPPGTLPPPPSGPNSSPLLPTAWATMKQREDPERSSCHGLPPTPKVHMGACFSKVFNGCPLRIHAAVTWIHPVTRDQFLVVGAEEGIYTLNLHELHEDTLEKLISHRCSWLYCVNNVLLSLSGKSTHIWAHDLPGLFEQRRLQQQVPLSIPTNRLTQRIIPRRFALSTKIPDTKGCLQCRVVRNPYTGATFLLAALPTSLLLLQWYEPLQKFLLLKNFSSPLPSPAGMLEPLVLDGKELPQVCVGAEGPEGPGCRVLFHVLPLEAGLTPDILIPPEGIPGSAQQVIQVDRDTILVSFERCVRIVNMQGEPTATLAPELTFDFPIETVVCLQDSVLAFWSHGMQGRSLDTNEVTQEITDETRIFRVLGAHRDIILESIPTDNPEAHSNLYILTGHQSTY", "text": "as §1"}}}
{"smiles": "COc1ccc(/C=C2\\SC(=S)NC2=O)cc1C#C[Si](C)(C)C", "note": "[FINDY]", "values": [{"measurement": "inhibition at 10 µM", "setting": "FGFR1", "value": 37, "unit": "%"}, {"measurement": "inhibition at 10 µM", "setting": "PKD3", "value": -13.4, "unit": "%"}, {"measurement": "inhibition at 10 µM", "setting": "PAK5", "value": -7, "unit": "%"}, {"measurement": "inhibition at 10 µM", "setting": "MELK", "value": 20.6, "unit": "%"}, {"measurement": "inhibition at 10 µM", "setting": "PKN1", "value": -0.9, "unit": "%"}, {"measurement": "inhibition at 10 µM", "setting": "PKCγ", "value": 4.1, "unit": "%"}, {"measurement": "inhibition at 10 µM", "setting": "PLK3", "value": 76.3, "unit": "%"}, {"measurement": "inhibition at 10 µM", "setting": "DLK_Cascade", "value": 23.5, "unit": "%"}, {"measurement": "inhibition at 10 µM", "setting": "AurC", "value": 40.1, "unit": "%"}, {"measurement": "inhibition at 10 µM", "setting": "DDR1", "value": -3.2, "unit": "%"}, {"measurement": "inhibition at 10 µM", "setting": "JAK2", "value": 7.1, "unit": "%"}, {"measurement": "inhibition at 10 µM", "setting": "CDK2/CycA2", "value": 31.3, "unit": "%"}, {"measurement": "inhibition at 10 µM", "setting": "RAF1_Cascade", "value": 50.9, "unit": "%"}, {"measurement": "inhibition at 10 µM", "setting": "PYK2", "value": 3.6, "unit": "%"}, {"measurement": "inhibition at 10 µM", "setting": "PKCζ", "value": -6.1, "unit": "%"}, {"measurement": "inhibition at 10 µM", "setting": "AurA/TPX2", "value": 25.1, "unit": "%"}, {"measurement": "inhibition at 10 µM", "setting": "PASK", "value": 11.9, "unit": "%"}, {"measurement": "inhibition at 10 µM", "setting": "FLT1", "value": 6.6, "unit": "%"}, {"measurement": "inhibition at 10 µM", "setting": "MLK2_Cascade", "value": 41, "unit": "%"}, {"measurement": "inhibition at 10 µM", "setting": "PLK1", "value": 23.7, "unit": "%"}, {"measurement": "inhibition at 10 µM", "setting": "MAP2K2_Cascade", "value": 38.8, "unit": "%"}, {"measurement": "inhibition at 10 µM", "setting": "Erk5", "value": -4, "unit": "%"}, {"measurement": "inhibition at 10 µM", "setting": "MST1", "value": -5.2, "unit": "%"}, {"measurement": "inhibition at 10 µM", "setting": "EPHA2", "value": 16.3, "unit": "%"}, {"measurement": "inhibition at 10 µM", "setting": "LOK", "value": -28.2, "unit": "%"}, {"measurement": "inhibition at 10 µM", "setting": "PKD2", "value": 29.9, "unit": "%"}, {"measurement": "inhibition at 10 µM", "setting": "TRKA", "value": -0.6, "unit": "%"}, {"measurement": "inhibition at 10 µM", "setting": "EPHA1", "value": 40.5, "unit": "%"}, {"measurement": "inhibition at 10 µM", "setting": "p38γ", "value": 5, "unit": "%"}, {"measurement": "inhibition at 10 µM", "setting": "MARK1", "value": 46.7, "unit": "%"}, {"measurement": "inhibition at 10 µM", "setting": "ALK", "value": -4.3, "unit": "%"}, {"measurement": "inhibition at 10 µM", "setting": "TAK1-TAB1_Cascade", "value": 52.7, "unit": "%"}, {"measurement": "inhibition at 10 µM", "setting": "MSK2", "value": 20.8, "unit": "%"}, {"measurement": "inhibition at 10 µM", "setting": "PAK6", "value": -145, "unit": "%"}, {"measurement": "inhibition at 10 µM", "setting": "TSSK1", "value": 3.3, "unit": "%"}, {"measurement": "inhibition at 10 µM", "setting": "PGK", "value": 2.6, "unit": "%"}, {"measurement": "inhibition at 10 µM", "setting": "IRAK1", "value": -1.1, "unit": "%"}, {"measurement": "inhibition at 10 µM", "setting": "HIPK4", "value": 16.6, "unit": "%"}, {"measurement": "inhibition at 10 µM", "setting": "KIT", "value": 2.9, "unit": "%"}, {"measurement": "inhibition at 10 µM", "setting": "p70S6K", "value": 7.4, "unit": "%"}, {"measurement": "inhibition at 10 µM", "setting": "PDHK2", "value": 14.1, "unit": "%"}, {"measurement": "inhibition at 10 µM", "setting": "TYRO3", "value": 2.9, "unit": "%"}, {"measurement": "inhibition at 10 µM", "setting": "NEK6", "value": 23.6, "unit": "%"}, {"measurement": "inhibition at 10 µM", "setting": "MAP4K2", "value": 3.3, "unit": "%"}]}
